# Numbered stars: 1 amine (or outer) side, 2 acyl side, 3 side chain; on linkers, the order of the positions; unused ones are H or OH. Bridge positions count the residues as written; N and C are the ends. Square brackets hold non-standard residues; d marks the D form. Peptide text beside a SMILES is read from it. * marks the point of attachment. ξ: configuration not given here. Phe(4-COOH) = N[C@@H](Cc1ccc(C(=O)O)cc1)C(=O)O; Bip = N[C@@H](Cc1ccc(-c2ccccc2)cc1)C(=O)O; Phe(3-F) = N[C@@H](Cc1cccc(F)c1)C(=O)O; Phe(3-Me) = Cc1cccc(C[C@H](N)C(=O)O)c1; X5 = CC(C)(CCN)[C@H](N[*:1])C(=O)[*:2]; NH(CH2)12COOH = O=C(O)CCCCCCCCCCCCN*; Val(3-OH) = CC(C)(O)[C@H](N)C(=O)O; X17 = O=C(C(CN1CCOCC1)N[*:1])[*:2]; X8 = CC(C)(F)C(N[*:1])C(=O)[*:2]; Aad = N[C@@H](CCCC(=O)O)C(=O)O; Cha = N[C@@H](CC1CCCCC1)C(=O)O; Thr(3ξ) = CC(O)[C@H](N)C(=O)O; Carboxymethyl = O=C(O)C*; Orn = NCCC[C@H](N)C(=O)O; Aun = NCCCCCCCCCCC(=O)O; Dab = NCC[C@H](N)C(=O)O; Dap = NC[C@H](N)C(=O)O; AEEA = NCCOCCOCC(=O)O
# Biological target: T1, PD-1/PD-L1 interaction (PE-labeled human PD-L1-Ig binding to Jurkat cell line over-expressing human PD-1) (Homo sapiens, UniProt Q15116)
# T1 construct: expressed in transfected cells; host or cells: Jurkat
# Test: Jurkat-PD-1 Cell Binding High-Content Screening Assay (CBA)
# Assay type: cell-based
# Details: Jurkat cell line over-expressing human PD-1; PE-labeled PD-L1-Ig 20 nM final; read-out: Jurkat hPD1-PDL1 IC50
# How it was run: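 Human PD-L1-Ig carrying a covalent PE label on its Ig tag serves as the probe, applied at 20 nM final to compound-treated (2 h, 37° C) Jurkat-hPD-1 cells in medium with 10% fetal calf serum. After one hour, fixation and nuclear staining precede high-content image analysis.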
# T1 sequence (Q15116 25-288): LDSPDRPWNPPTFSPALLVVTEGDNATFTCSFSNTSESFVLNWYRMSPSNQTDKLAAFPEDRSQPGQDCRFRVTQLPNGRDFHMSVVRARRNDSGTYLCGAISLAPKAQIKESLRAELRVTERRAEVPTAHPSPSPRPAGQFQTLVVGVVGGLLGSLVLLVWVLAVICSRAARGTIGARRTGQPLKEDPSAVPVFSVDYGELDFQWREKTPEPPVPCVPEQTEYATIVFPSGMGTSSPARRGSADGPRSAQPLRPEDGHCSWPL
row,SMILES,IC50 [nM]
1,Cc1cccc(C[C@@H]2NC(=O)[C@H](CC(=O)O)NC(=O)[C@H](Cc3ccc(OCC(=O)O)cc3)NC(=O)[C@H](CCCC(=O)O)NC(=O)CSC[C@@H](C(=O)N[C@@H](CCN)C(=O)NCCCCCCCCCCCCC(=O)O)NC(=O)[C@H](CO)NC(=O)[C@H](C(C)(C)O)NC(=O)[C@H](CC3CCCCC3)NC(=O)[C@H](CCN)NC(=O)[C@@H](CC(C)C)NC(=O)[C@H](CCCN)NC(=O)[C@H](Cc3ccc(OCC(=O)O)cc3)NC(=O)[C@H](Cc3ccc(-c4ccccc4)cc3)NC(=O)[C@H](Cc3ccc(OCC(=O)O)cc3)NC2=O)c1 [Compound 2259] ({CH2CO}-[Aad]Y(Carboxymethyl)D[Phe(3-Me)]Y(Carboxymethyl)[Bip]Y(Carboxymethyl)[Orn][dL][Dab][Cha][Val(3-OH)]SC[Dab]-{NH(CH2)12COOH}; thioether N-14),17.9
2,Cc1cccc(C[C@@H]2NC(=O)[C@H](CC(=O)O)NC(=O)[C@H](Cc3ccc(OCC(=O)O)cc3)NC(=O)C(CN3CCOCC3)NC(=O)CSC[C@@H](C(=O)N[C@@H](CCN)C(=O)NCCCCCCCCCCCCC(=O)O)NC(=O)[C@H](CO)NC(=O)[C@H](C(C)(C)O)NC(=O)[C@H](CC3CCCCC3)NC(=O)[C@H](CCN)NC(=O)[C@@H](CC(C)C)NC(=O)[C@H](CCCN)NC(=O)[C@H](Cc3ccc(OCC(=O)O)cc3)NC(=O)[C@H](Cc3ccc(-c4ccccc4)cc3)NC(=O)[C@H](Cc3ccc(OCC(=O)O)cc3)NC2=O)c1 (stereo partly drawn) [Compound 2260] ({CH2CO}-[X17]Y(Carboxymethyl)D[Phe(3-Me)]Y(Carboxymethyl)[Bip]Y(Carboxymethyl)[Orn][dL][Dab][Cha][Val(3-OH)]SC[Dab]-{NH(CH2)12COOH}; thioether N-14),9.4
3,Cc1cccc(C[C@@H]2NC(=O)[C@H](CC(=O)O)NC(=O)[C@H](Cc3ccc(OCC(=O)O)cc3)NC(=O)[C@H](CCN)NC(=O)CSC[C@@H](C(=O)N[C@H](C(=O)NCCCCCCCCCCC(=O)O)C(C)(C)CCN)NC(=O)[C@H](CO)NC(=O)[C@H](C(C)(C)O)NC(=O)[C@H](CC3CCCCC3)NC(=O)[C@H](CCN)NC(=O)[C@@H](CC(C)C)NC(=O)[C@H](CCCN)NC(=O)[C@H](Cc3ccc(OCC(=O)O)cc3)NC(=O)[C@H](Cc3ccc(-c4ccccc4)cc3)NC(=O)[C@H](Cc3ccc(OCC(=O)O)cc3)NC2=O)c1 [Compound 2261] ({CH2CO}-[Dab]Y(Carboxymethyl)D[Phe(3-Me)]Y(Carboxymethyl)[Bip]Y(Carboxymethyl)[Orn][dL][Dab][Cha][Val(3-OH)]SC[X5][Aun]-OH; thioether N-14),207
4,Cc1cccc(C[C@@H]2NC(=O)[C@H](CC(=O)O)NC(=O)[C@H](Cc3ccc(OCC(=O)O)cc3)NC(=O)[C@H](CN)NC(=O)CSC[C@@H](C(=O)N[C@@H](CCN)C(=O)NCCOCCOCC(=O)NCCCCCCCCCCC(=O)O)NC(=O)[C@H](CCCN)NC(=O)[C@H](C(C)C)NC(=O)[C@H](CC3CCCCC3)NC(=O)[C@H](CCN)NC(=O)[C@@H](CC(C)C)NC(=O)[C@H](CCCN)NC(=O)[C@H](Cc3ccc(O)cc3)NC(=O)[C@H](Cc3ccc(-c4ccccc4)cc3)NC(=O)[C@H](Cc3cccc(F)c3)NC2=O)c1 [Compound 2262] ({CH2CO}-[Dap]Y(Carboxymethyl)D[Phe(3-Me)][Phe(3-F)][Bip]Y[Orn][dL][Dab][Cha]V[Orn]C[Dab][AEEA][Aun]-OH; thioether N-14),8.3
5,Cc1cccc(C[C@@H]2NC(=O)[C@H](CC(=O)O)NC(=O)[C@H](Cc3ccc(OCC(=O)O)cc3)NC(=O)[C@H](Cc3ccc(OCC(=O)O)cc3)NC(=O)CSC[C@@H](C(=O)N[C@@H](CCN)C(=O)NCCCCCCCCCCC(=O)O)NC(=O)[C@H](C(C)O)NC(=O)[C@H](C(C)C)NC(=O)[C@H](CC3CCCCC3)NC(=O)[C@H](CCN)NC(=O)[C@@H](CC(C)C)NC(=O)[C@H](CCCN)NC(=O)[C@H](Cc3ccc(OCC(=O)O)cc3)NC(=O)[C@H](Cc3ccc(-c4ccccc4)cc3)NC(=O)[C@H](C(C)C)NC2=O)c1 (stereo partly drawn) [Compound 2263] ({CH2CO}-Y(Carboxymethyl)Y(Carboxymethyl)D[Phe(3-Me)]V[Bip]Y(Carboxymethyl)[Orn][dL][Dab][Cha]V[Thr(3ξ)]C[Dab][Aun]-OH; thioether N-14),38.2
6,Cc1cccc(C[C@@H]2NC(=O)[C@H](CC(=O)O)NC(=O)[C@H](Cc3ccc(OCC(=O)O)cc3)NC(=O)[C@H](CCCNC(=N)N)NC(=O)CSC[C@@H](C(=O)N[C@@H](CCN)C(=O)NCCCCCCCCCCC(=O)O)NC(=O)[C@H]([C@@H](C)O)NC(=O)C(C(C)(C)F)NC(=O)[C@H](CC3CCCCC3)NC(=O)[C@H](CCN)NC(=O)[C@@H](CC(C)C)NC(=O)[C@H](CCCN)NC(=O)[C@H](Cc3ccc(OCC(=O)O)cc3)NC(=O)[C@H](Cc3ccc(-c4ccccc4)cc3)NC(=O)[C@H](Cc3ccc(O)cc3)NC2=O)c1 (stereo partly drawn) [Compound 2264] ({CH2CO}-RY(Carboxymethyl)D[Phe(3-Me)]Y[Bip]Y(Carboxymethyl)[Orn][dL][Dab][Cha][X8]TC[Dab][Aun]-OH; thioether N-14),13.1
7,CC(C)C[C@H]1NC(=O)[C@H](CCCN)NC(=O)[C@H](Cc2ccc(O)cc2)NC(=O)[C@H](Cc2ccc(-c3ccccc3)cc2)NC(=O)[C@H](Cc2ccc(O)cc2)NC(=O)[C@H](Cc2c[nH]c3ccccc23)NC(=O)[C@H](CC(=O)O)NC(=O)[C@H](Cc2ccc(C(=O)O)cc2)NC(=O)[C@H](Cc2ccc(OCC(=O)O)cc2)NC(=O)CSC[C@@H](C(=O)N[C@@H](CCN)C(=O)NCCOCCOCC(=O)NCCCCCCCCCCC(=O)O)NC(=O)[C@H](CCCCN)NC(=O)[C@H](Cc2ccc(O)cc2)NC(=O)[C@H](CC2CCCCC2)NC(=O)[C@H](CCN)NC1=O [Compound 2501] ({CH2CO}-Y(Carboxymethyl)[Phe(4-COOH)]DWY[Bip]Y[Orn][dL][Dab][Cha]YKC[Dab][AEEA][Aun]-OH; thioether N-14),28.4
8,CC(C)C[C@H]1NC(=O)[C@H](CCCN)NC(=O)[C@H](Cc2ccc(O)cc2)NC(=O)[C@H](Cc2ccc(-c3ccccc3)cc2)NC(=O)[C@H](Cc2ccc(O)cc2)NC(=O)[C@H](Cc2c[nH]c3ccccc23)NC(=O)[C@H](CC(=O)O)NC(=O)[C@H](Cc2ccc(OCC(=O)O)cc2)NC(=O)[C@H](Cc2ccc(OCC(=O)O)cc2)NC(=O)CSC[C@@H](C(=O)N[C@@H](CCN)C(=O)NCCOCCOCC(=O)NCCCCCCCCCCC(=O)O)NC(=O)[C@H](CCCNC(=N)N)NC(=O)[C@H](Cc2ccc(O)cc2)NC(=O)[C@H](CC2CCCCC2)NC(=O)[C@H](CCN)NC1=O [Compound 2502] ({CH2CO}-Y(Carboxymethyl)Y(Carboxymethyl)DWY[Bip]Y[Orn][dL][Dab][Cha]YRC[Dab][AEEA][Aun]-OH; thioether N-14),21.2
9,CC(C)C[C@H]1NC(=O)[C@H](CCCN)NC(=O)[C@H](Cc2ccc(O)cc2)NC(=O)[C@H](Cc2ccc(-c3ccccc3)cc2)NC(=O)[C@H](Cc2ccc(O)cc2)NC(=O)[C@H](Cc2c[nH]c3ccccc23)NC(=O)[C@H](CC(=O)O)NC(=O)[C@H](Cc2ccc(OCC(=O)O)cc2)NC(=O)[C@H](CN)NC(=O)CSC[C@@H](C(=O)N[C@@H](CCN)C(=O)NCCOCCOCC(=O)NCCCCCCCCCCC(=O)O)NC(=O)[C@H](CCCCN)NC(=O)[C@H](Cc2ccc(O)cc2)NC(=O)[C@H](CC2CCCCC2)NC(=O)[C@H](CCN)NC1=O [Compound 2503] ({CH2CO}-[Dap]Y(Carboxymethyl)DWY[Bip]Y[Orn][dL][Dab][Cha]YKC[Dab][AEEA][Aun]-OH; thioether N-14),39.9
10,Cc1cccc(C[C@@H]2NC(=O)[C@H](CC(=O)O)NC(=O)[C@H](Cc3ccc(OCC(=O)O)cc3)NC(=O)[C@H](CN)NC(=O)CSC[C@@H](C(=O)N[C@@H](CCN)C(=O)NCCOCCOCC(=O)NCCCCCCCCCCC(=O)O)NC(=O)[C@H](CN)NC(=O)[C@H](Cc3ccc(O)cc3)NC(=O)[C@H](CC3CCCCC3)NC(=O)[C@H](CCN)NC(=O)[C@@H](CC(C)C)NC(=O)[C@H](CCCN)NC(=O)[C@H](Cc3ccc(O)cc3)NC(=O)[C@H](Cc3ccc(-c4ccccc4)cc3)NC(=O)[C@H](Cc3ccc(O)cc3)NC2=O)c1 [Compound 2504] ({CH2CO}-[Dap]Y(Carboxymethyl)D[Phe(3-Me)]Y[Bip]Y[Orn][dL][Dab][Cha]Y[Dap]C[Dab][AEEA][Aun]-OH; thioether N-14),37.4
11,Cc1cccc(C[C@@H]2NC(=O)[C@H](CC(=O)O)NC(=O)[C@H](Cc3ccc(OCC(=O)O)cc3)NC(=O)[C@H](CN)NC(=O)CSC[C@@H](C(=O)N[C@@H](CCN)C(=O)NCCOCCOCC(=O)NCCCCCCCCCCC(=O)O)NC(=O)[C@H](CCCN)NC(=O)[C@H](Cc3ccc(O)cc3)NC(=O)[C@H](CC3CCCCC3)NC(=O)[C@H](CCN)NC(=O)[C@@H](CC(C)C)NC(=O)[C@H](CCCN)NC(=O)[C@H](Cc3ccc(O)cc3)NC(=O)[C@H](Cc3ccc(-c4ccccc4)cc3)NC(=O)[C@H](Cc3ccc(O)cc3)NC2=O)c1 [Compound 2505] ({CH2CO}-[Dap]Y(Carboxymethyl)D[Phe(3-Me)]Y[Bip]Y[Orn][dL][Dab][Cha]Y[Orn]C[Dab][AEEA][Aun]-OH; thioether N-14),20.9
12,Cc1cccc(C[C@@H]2NC(=O)[C@H](CC(=O)O)NC(=O)[C@H](Cc3ccc(OCC(=O)O)cc3)NC(=O)[C@H](CN)NC(=O)CSC[C@@H](C(=O)N[C@@H](CCN)C(=O)NCCOCCOCC(=O)NCCCCCCCCCCC(=O)O)NC(=O)[C@H](CCCNC(=N)N)NC(=O)[C@H](Cc3ccc(O)cc3)NC(=O)[C@H](CC3CCCCC3)NC(=O)[C@H](CCN)NC(=O)[C@@H](CC(C)C)NC(=O)[C@H](CCCN)NC(=O)[C@H](Cc3ccc(O)cc3)NC(=O)[C@H](Cc3ccc(-c4ccccc4)cc3)NC(=O)[C@H](Cc3ccc(O)cc3)NC2=O)c1 [Compound 2506] ({CH2CO}-[Dap]Y(Carboxymethyl)D[Phe(3-Me)]Y[Bip]Y[Orn][dL][Dab][Cha]YRC[Dab][AEEA][Aun]-OH; thioether N-14),32.4

# From US20260022142A1, “MACROCYCLIC IMMUNOMODULATORS” (Bristol-Myers Squibb Company, priority 2022, published 2026)
